In paper PMC3363220, “Specific PKG inhibitors: do they really exist?” (BMC Pharmacology, 2011):
Where a SMILES comes first, the peptide text is derived from it. [ ]: non-standard residue; d: D form.

Assays:
[1] = tested on: PKG II; test: inhibition of PKG II; type: biochemical; conditions: up to 1 µM (D)-DT2
Description: (§1) We tested the inhibitory effects of (D)-DT2 and DT3 on PKG and its effects on intact cells. […] It should be noted that the measured PKG concentration is about 7 µM in platelets and 0.1 – 0.5 µM in all other tested cells.

[2] = tested on: PKA; test: inhibition of PKA; type: biochemical; conditions: up to 1 µM (D)-DT2
[3] = tested on: PKG; test: PKG activity in broken platelet cell experiments; type: biochemical; conditions: broken platelet cells, measured PKG concentration about 7 µM in platelets
Description: as §1

[4] = tested on: PKA; test: PKA activity in broken platelet cell experiments; type: biochemical; conditions: broken platelet cells; at these concentrations (starting at 5 µM, complete PKG inhibition at 20 µM)
Description: as §1

[5] = tested on: platelets; test: thrombin-induced platelet aggregation; type: cell-based; conditions: preincubation of platelets with 10 nM (D)-DT2
Description: as §1

[6] = tested on: platelets; test: thrombin-induced calcium mobilization in platelets; type: cell-based; conditions: preincubation of platelets with 10 nM (D)-DT2
Description: as §1

[7] = tested on: platelets; test: aggregation of collagen-stimulated platelets; type: cell-based; conditions: preincubation of platelets with 10 nM (D)-DT2
Description: as §1

[8] = tested on: platelets; test: calcium mobilization in collagen-stimulated platelets; type: cell-based; conditions: preincubation of platelets with 10 nM (D)-DT2
Description: as §1

[9] = tested on: platelets; test: platelet function versus PKG activity; type: cell-based
Description: as §1

[10] = tested on: PKG in intact cells; conditions: ref [1]; cited from earlier work
Excerpt: Cellular cGMP effects can be mediated by a number of effectors including cGMP-dependent protein kinases (PKGs), cGMP-stimulated phosphodiesterase (PDE2), cGMP-inhibited phosphodiesterase (PDE3), and cGMP-gated channels. Pharmacological inhibitors of PKG are often used to discriminate between these diverse cGMP effects. Currently used PKG inhibitors can be divided into three classes: cyclic nucleotide binding site inhibitors like Rp-phosphorothioate analogs, ATP binding site inhibitors like KT5823, and substrate binding site inhibitors like the recently described DT-oligopeptides. However, seve ...

SMILES | inhibition of PKG II [1] | inhibition of PKA [2] | concentration giving complete inhibition of PKG activity ([3]; complete inhibition) [µM] | concentration at which PKG inhibition starts [3] [µM] | inhibition of PKA activity [4] | effect on thrombin-induced platelet aggregation [5] | effect on thrombin-induced calcium mobilization [6] | effect on aggregation in collagen-stimulated platelets [7] | effect on calcium mobilization in collagen-stimulated platelets [8] | correlation of effects on platelet function with PKG activity [9] | PKG inhibition in intact cells [10]
CC(C)C[C@@H](NC(=O)[C@H]1CCCN1C(=O)[C@H]1CCCN1C(=O)[C@@H](CCCNC(=N)N)NC(=O)[C@@H](CCCNC(=N)N)NC(=O)[C@@H](CCCNC(=N)N)NC(=O)[C@@H](CCC(N)=O)NC(=O)[C@@H](CCCNC(=N)N)NC(=O)[C@@H](CCCNC(=N)N)NC(=O)[C@@H](CCCCN)NC(=O)[C@@H](CCCCN)NC(=O)[C@@H](CCCNC(=N)N)NC(=O)CNC(=O)[C@H](N)Cc1ccc(O)cc1)C(=O)N[C@H](CCCNC(=N)N)C(=O)N[C@H](CCCCN)C(=O)N[C@H](CCCCN)C(=O)N[C@H](CCCCN)C(=O)N[C@H](CCCCN)C(=O)N[C@H](CCCCN)C(=O)N[C@H](Cc1c[nH]cn1)C(N)=O [(D)-DT2] (H-[dY]G[dR][dK][dK][dR][dR][dQ][dR][dR][dR][dP][dP][dL][dR][dK][dK][dK][dK][dK][dH]-NH2; N-terminus and C-terminus assumed) | did not inhibit | did not inhibit | 20 | 5 | observed inhibition of PKA activity | strongly inhibited | strongly inhibited | potentiated | potentiated | did not correlate with PKG activity | 
COC(=O)[C@@]1(OC)C[C@H]2O[C@]1(C)n1c3ccccc3c3c4c(c5c6ccccc6n2c5c31)C(=O)N(C)C4 [KT5823] |  |  |  |  |  |  |  |  |  |  | no PKG inhibition
